Results on two compounds are retold here after US6545052B2, “Methods and compositions for inhibiting free radical polymerization in skin and hair” (Fan Tech, Ltd., priority 2000, dated 2003).

The assay is described as follows: free radical inhibition assay: inhibition of polymerization of acrylic acid to polyacrylic acid. Conditions: for % Polymerization (after 3 hours at 85° C.): 30% acrylic acid in water, 200 ml, 0.6 ml of 1% inhibitor solution, initiated with azobisisobutyronitrile, remaining acrylic acid by iodine value. The text has this:
A presently preferred method for determining the free radical inhibitory capacity of a compound is based on the ability of such a compound to inhibit free radical polymerization of acrylic acid to polyacrylic acid. […] As will be appreciated, the amount of polyacrylic acid formed is inversely related to the amount of acrylic acid (i.e., monomer) remaining in the reaction mixture at the end of the assay. The amount of acrylic acid may be routinely determined by measuring the iodine value of the reaction mixture or by other methods known in the art for determinating unsaturation. A well-known free radical inhibitor compound such as hydroquinone mono methyl ether (HQMME) may be used as a standard inhibitor compound in the assay.
Into each of three 250 ml beakers, labeled “1,” “2,” and “3” respectively, is added 200 ml of a 30% solution of acrylic acid (in water). One-tenth gram of 1,3-di(3-methoxybenzyl)thiourea was dissolved in 9.9 grams of isopropyl alcohol to give a 1% (w/w) solution of the free radical inhibitor compound. […] One-tenth gram of azobisisobutyronitrile (a free radical initiator) was dissolved in 9.9 grams of isopropyl alcohol to provide a 1% solution of the free radical initiator. To beaker 1, containing 200 ml of the acrylic acid solution was added 0.6 ml of the 1% solution of 1,3-di(3-methoxybenzyl)thiourea. To beaker 2, containing 200 ml of the acrylic acid solution was added 0.6 ml of the 1% solution of hydroquinone mono methyl ether. To beaker 3 was added 0.6 ml of isopropyl alcohol (no inhibitor). […] After 3 hours, the beakers were removed from the hot plate to stop the reaction from progressing further, and the amount of acrylic acid which remained in the reaction mixture was determined by measuring the iodine value of an aliquot of the reaction mixture using the A.O.C.S. Method Tg 1a-64T in Official Methods And Recommended Practices Of The AOCS, by American Oil Chemists' Society, Champaign, Ill.

For the compound `COc1cccc(CNC(=S)NCc2cccc(OC)c2)c1` [1,3-di(3-methoxybenzyl)thiourea, 1,3-di-(3-methoxybenzyl) thiourea], the “% Polymerization (after 3 hours at 85° C.)” value was found to be 48.6%. The “inhibition of the free radical polymerization reaction (in words)” value (assay of Example 10, 85° C., 3 hours) is “strongly inhibited”.
As to `COc1ccc(O)cc1` [hydroquinone mono methyl ether, reference compound], the “% Polymerization (after 3 hours at 85° C.)” value was determined as 78.6%.
